Experimental data reported in ChEMBL document CHEMBL1147995, “In-vitro investigation of oxazol and urea analogues of morphinan at opioid receptors” (Bioorg Med Chem, 2007).

How the values were obtained:
[1] = molecular target: T1, Kappa-type opioid receptor (Homo sapiens, UniProt P41145); test: Displacement of [3H]U69,593 from human kappa opioid receptor expressed in CHO membrane; format: cell membranes
Mu-type opioid receptor [2] = molecular target: T2, Mu-type opioid receptor (Homo sapiens, UniProt P35372); test: Agonist activity at human mu opioid receptor expressed in CHO cells assessed as stimulation of [35S]GTP-gamma-S binding relative to basal level after 60 mins; format: functional, cell-based
Mu-type opioid receptor [3] = molecular target: T2, Mu-type opioid receptor; test: Agonist activity at human mu opioid receptor expressed in CHO cells assessed as stimulation of [35S]GTP-gamma-S binding after 60 mins; format: functional, cell-based
[4] = molecular target: T1, Kappa-type opioid receptor; test: Agonist activity at human kappa opioid receptor expressed in CHO cells assessed as stimulation of [35S]GTP-gamma-S binding after 60 mins; format: functional, cell-based
Mu-type opioid receptor [5] = molecular target: T2, Mu-type opioid receptor; test: Antagonist activity at human mu opioid receptor expressed in CHO cells assessed as inhibition of DAMGO-induced [35S]GTPgammaS binding after 60 mins; format: functional, cell-based
[6] = molecular target: T3, Delta-type opioid receptor (Homo sapiens, UniProt P41143); test: Displacement of [3H]naltrindole from human delta opioid receptor expressed in CHO membrane; format: cell membranes
[7] = molecular target: T1, Kappa-type opioid receptor; test: Agonist activity at human kappa opioid receptor expressed in CHO cells assessed as stimulation of [35S]GTP-gamma-S binding relative to basal level after 60 mins; format: functional, cell-based
Mu-type opioid receptor [8] = molecular target: T2, Mu-type opioid receptor; test: Displacement of [3H]DAMGO from human mu opioid receptor expressed in CHO membrane; format: cell membranes
[9] = Displacement of [3H]naltrindole from human delta opioid receptor expressed in CHO membrane
[10] = molecular target: T3, Delta-type opioid receptor; test: Displacement of [3H]naltrindole from human delta opioid receptor expressed in CHO membrane at 10 uM; format: cell membranes

T2 sequence (P35372 whole entry): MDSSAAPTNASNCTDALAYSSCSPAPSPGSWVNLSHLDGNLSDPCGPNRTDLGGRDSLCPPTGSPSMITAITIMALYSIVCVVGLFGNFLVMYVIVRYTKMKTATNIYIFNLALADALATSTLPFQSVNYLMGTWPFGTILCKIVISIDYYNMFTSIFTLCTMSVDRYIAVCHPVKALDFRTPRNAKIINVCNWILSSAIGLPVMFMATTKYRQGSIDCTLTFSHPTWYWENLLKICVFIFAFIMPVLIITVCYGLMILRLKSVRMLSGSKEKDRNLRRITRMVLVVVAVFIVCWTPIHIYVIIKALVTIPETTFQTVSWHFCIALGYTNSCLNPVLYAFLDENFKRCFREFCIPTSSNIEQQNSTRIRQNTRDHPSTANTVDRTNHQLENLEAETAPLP
T3 sequence (P41143 whole entry): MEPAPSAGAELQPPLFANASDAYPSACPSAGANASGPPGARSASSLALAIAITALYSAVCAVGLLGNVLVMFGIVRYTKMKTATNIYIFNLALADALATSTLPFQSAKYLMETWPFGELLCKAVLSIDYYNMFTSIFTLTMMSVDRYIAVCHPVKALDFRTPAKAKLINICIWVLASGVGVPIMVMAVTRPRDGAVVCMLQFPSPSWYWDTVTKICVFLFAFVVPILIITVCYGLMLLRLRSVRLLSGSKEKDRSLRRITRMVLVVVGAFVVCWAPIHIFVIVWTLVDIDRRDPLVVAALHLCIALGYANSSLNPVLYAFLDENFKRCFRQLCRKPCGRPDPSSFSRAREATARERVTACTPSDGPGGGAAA
T1 sequence (P41145 whole entry): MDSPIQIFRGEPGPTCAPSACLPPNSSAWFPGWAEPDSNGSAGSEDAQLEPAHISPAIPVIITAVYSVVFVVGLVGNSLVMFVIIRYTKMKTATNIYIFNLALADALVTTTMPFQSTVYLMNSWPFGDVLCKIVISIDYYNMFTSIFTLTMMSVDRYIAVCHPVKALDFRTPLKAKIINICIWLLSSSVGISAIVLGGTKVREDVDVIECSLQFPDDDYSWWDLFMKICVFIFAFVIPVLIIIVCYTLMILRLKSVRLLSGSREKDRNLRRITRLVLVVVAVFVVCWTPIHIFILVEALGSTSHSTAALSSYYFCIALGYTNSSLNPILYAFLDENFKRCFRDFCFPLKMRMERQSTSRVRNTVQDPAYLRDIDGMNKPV

SMILES	Ki [1] [nM]	Emax (Mu-type opioid receptor [2]) [%]	EC50 (Mu-type opioid receptor [3]) [nM]	EC50 [4] [nM]	IC50 (Mu-type opioid receptor [5]) [nM]	Imax (Mu-type opioid receptor [5]) [%]	Ki [6] [nM]	Emax [7] [%]	Ki (Mu-type opioid receptor [8]) [nM]	Ki [9] [nM]	inhibition [10] [%]
NC(=O)Nc1ccc2c(c1)[C@@]13CCCC[C@H]1[C@@H](C2)N(CC1CC1)CC3	0.61	21	31	33	380	52	23	84	1.4	–	–
CNC(=O)Nc1ccc2c(c1)[C@@]13CCCC[C@H]1[C@@H](C2)N(CC1CC1)CC3	2.3	–	–	8.4	–	–	50	67	12	–	–
NC(=O)Nc1ccc2c(c1)[C@@]13CCCC[C@H]1[C@@H](C2)N(CC1CCC1)CC3	8.9	33	63	87	1500	35	160	64	3.2	–	–
Nc1ccc2c(c1)[C@@]13CCCC[C@H]1[C@@H](C2)N(CC1CC1)CC3	0.18	–	–	–	–	–	–	–	1.3	150	–
CNC(=O)Nc1ccc2c(c1)[C@@]13CCCC[C@H]1[C@@H](C2)N(CC1CCC1)CC3	20	–	–	–	–	–	270	–	22	–	–
Nc1nc2cc3c(cc2o1)[C@@]12CCCC[C@H]1[C@@H](C3)N(CC1CCC1)CC2	6.6	–	–	–	–	–	–	–	40	–	46
Nc1nc2cc3c(cc2o1)[C@@]12CCCC[C@H]1[C@@H](C3)N(CC1CC1)CC2	52	–	–	–	–	–	–	–	150	–	18
Nc1ccc2c(c1)[C@@]13CCCC[C@H]1[C@@H](C2)N(CC1CCC1)CC3	–	–	–	–	–	–	–	–	–	180	–
O=c1[nH]c2cc3c(cc2o1)[C@@]12CCCC[C@H]1[C@@H](C3)N(CC1CCC1)CC2	1.9	–	–	–	–	–	360	–	5.8	–	–
O=c1[nH]c2cc3c(cc2o1)[C@@]12CCCC[C@H]1[C@@H](C3)N(CC1CC1)CC2	47	–	–	–	–	–	–	–	160	–	44
